For series [1] the following is noted: healthy volunteers; cited from earlier work.
Series [2] has as its system 4T1 mouse mammary gland carcinoma. Type of series: in vivo. The note with it: data not shown.
In the next series the test system is complement activation. The note with it: higher than Factor H; cited from earlier work.

On to `CC[C@H](C(=O)N1CCCC[C@H]1C(=O)O[C@H](CCc1ccc(OC)c(OC)c1)c1cccc(OCC(=O)NCCNC(=O)COc2cccc([C@@H](CCc3ccc(OC)c(OC)c3)OC(=O)[C@@H]3CCCCN3C(=O)[C@@H](CC)c3cc(OC)c(OC)c(OC)c3)c2)c1)c1cc(OC)c(OC)c(OC)c1` [AP1903], for which the safety result in series [1] is listed as “proven safe”. Versikine: in series [2], the “tumor size, Versikine assessed alone” value was “did not significantly reduced tumor size”.

B1: miniFH (protein)
chain: EDCNELPPRRNTEILTGSWSDQTYPEGTQAIYKCRPGYRSLGNVIMVCRKGEWVALNPLRKCQKRPCGHPGDTPFGTFTLTGGNVFEYGVKAVYTCNEGYQLLGEINYRECDTDGWTNDIPICEVVKCLPVTAPENGKIVSSAMEPDREYHFGQAVRFVCNSGYKIEGDEEMHCSDDGFWSKEKPKCVEISCKSPDVINGSPISQKIIYKENERFQYKCNMGYEYSERGDAVCTESGWRPLPSCEEKSCDNPYIPNGDYSPLRIKHRTGDEITYQCRNGFYPATRGNTAKCTSTGWIPAPRCTSGSGGGGVDTTSCVNPPTVQNAYIVSRQMSKYPSGERVRYQCRSPYEMFGDEEVMCLNGNWTEPPQCKDSTGKCGPPPPIDNGDITSFPLSVYAPASSVEYQCQNLYQLEGNKRITCRNGQWSEPPKCLHPCVISREIMENYNIALRWTAKQKLYSRTGESVEFVCKRGYRLSSRSHTLRTTCWDGKLEYPTCAKR
modifications: REGION 1..499: note = miniFH POLYPEPTIDE
For B1, the “ex vivo potency to inhibit complement activation compared with FH” value with complement activation was about 10 fold.
